How the values were obtained:
[1] = In vitro stability in normal saline (radiochemical purity by TLC); assay type: physicochemical
Experimental: Four EP tubes were taken and marked as numbers (1) to (4) in sequence, in which 0.1 ml of normal saline was added to numbers (1) and (2), respectively, 0.1 ml of fresh human serum diluted 10 times was added to numbers (3) and (4), respectively, and then 1.0 mci of freshly prepared ^68Ga-DOTA-ibandronic acid was added to these 4 tubes, respectively. Numbers (1) and (3) were placed at room temperature (25±2° C.) and numbers (2) and (4) were placed in a 37° C. metal bath for incubation. The radiochemical purity values of numbers (1) to (4) were measured using a thin layer paper chromatography (TLC) at 10 min, 30 min, 1 h, 2 h, 3 h, 4 h, respectively.

[2] = Lipid-water distribution coefficient (n-octanol/deionized water); assay type: physicochemical
Experimental: Three 5 ml centrifuge tubes were taken, and numbered as A-(1), A-(2) and A-(3), respectively. 0.5 ml of n-octanol, 0.485 ml of deionized water and 0.25 ml of freshly prepared ^68Ga-DOTA-ibandronic acid with about 0.5 mci were added to each tube, and the centrifuge tubes were shaken by a vortex mixer for 20 minutes, then centrifuged at 2000 r/min for 5 minutes, from which 0.1 ml of upper liquid (organic phase) was respectively collected into 3 corresponding test tubes (numbered as B-(1), B-(2), B-(3), respectively), and 0.1 ml of lower liquid (aqueous phase) was respectively collected into 3 corresponding test tubes (numbered as C-(1), C-(2), C-(3), respectively). The total radioactivity count of the organic phase and that of the aqueous phase were measured by γ counter, respectively, and the lipid-water distribution coefficient lgP was calculated by formula.

[3] = test system: plasma protein; assay type: in vitro ADME; details: human
Experimental: 1 mL of fresh human plasma anticoagulated with heparin was taken for later use. Three EP tubes were taken and numbered as A-(1), A-(2), and A-(3), and were each added with 0.1 ml of fresh human plasma and 0.25 ml of freshly prepared ^68Ga-DOTA-ibandronic acid with about 0.5 mci. Then they were incubated in a metal bath at 37° C. for 30 minutes. Three 5 ml centrifuge tubes were taken and numbered as B-(1), B-(2), and B-(3). The incubated solutions were transferred to the corresponding centrifuge tubes, respectively. Then 1 ml of 25% trichloroacetic acid solution was added to each centrifuge tube, mixed thoroughly, then centrifuged at 2000 r/min for 5 minutes. The supernatants were respectively collected into 3 corresponding test tubes (numbered as C-(1), C-(2), C-(3), respectively). The centrifugation and supernatant collection were repeated 3 times. The total radioactivity count of the precipitations in the centrifuge tubes and that of the supernatants in the test tubes were measured by a γ counter, respectively, and the plasma protein binding rate (PPB) was calculated.

[4] = test system: PC-3, H1975, MDA-MB-231 bone metastasis models; assay: Therapeutic effect on tumor-bearing mice, free movement pain behavior scoring; assay type: in vivo, nude mice
Experimental: In this experimental example, the therapeutic effects of ^177Lu-DOTA-ibandronic acid of the present disclosure on tumor-bearing mice (PC-3, H1975, MDA-MB-231 bone metastasis models) were investigated. The ^177Lu-DOTA-ibandronic acid used in this experimental example was prepared according to the method of Example 6.
(1) Establishment of tumor-bearing mouse models: 24 SPF male nude mice and 12 SPF female nude mice were taken, and anesthetized with isoflurane. Then the skin around the left knee joint was disinfected, and the left hind limb was bent. An insulin needle (29G needle) was inserted into the tibia vertically from concave point of the articular fossa of the tibia, slowly rotated and inserted into the medullary cavity, to inject 25 μl of cell culture (approximately 2×10^6) of PC-3 (12 males), H1975 (12 males), and MDA-MB-231 (12 females). Then disinfection was carried out, and the holes were sealed with sterile bone wax. The animals were placed on a 37° C. hot-plate for rewarming. After resuscitation, they were returned to the cage and continued to be raised.
(2) Testing of tumor-bearing mouse models: After 4 weeks of inoculation, 36 nude mice were scanned using Micro-CT, respectively.
(3) Methods of different treatments and grouping: The 36 successfully modelled tumor-bearing mice were randomly divided into 4 groups. Among them, 2 groups were injected with ^177Lu-DOTA-ibandronic acid with low and high radioactivity (100 μCi, 500 μCi) into the tail vein, respectively, 3 animals in each group; and the animals in the blank control groups were injected with normal saline, and divided into a small volume group and a large volume group (10 μl, 50 μl), 3 animals in each group.
(4) Detection and results of treatment effect: Free movement pain behavior scoring was carried out on days 0, 7, 14, 21, 28, and 35, and used as the main indicator of bone pain relief in the tumor-bearing mice. At the corresponding time points, the tumor-bearing mice were placed in a transparent smooth flat-bottomed plastic box. […]

[5] = high activity 500 μCi, compared with all groups

| Structure (SMILES) | Radiochemical purity ([1]; 37° C., 10 min) [%] | Radiochemical purity ([1]; 37° C., 30 min) [%] | Radiochemical purity ([1]; 37° C., 1 h) [%] | Radiochemical purity ([1]; 37° C., 2 h) [%] | Radiochemical purity ([1]; 37° C., 3 h) [%] | Radiochemical purity ([1]; 37° C., 4 h) [%] | Radiochemical purity ([1]; room temperature, 10 min) [%] | Radiochemical purity ([1]; room temperature, 30 min) [%] | Radiochemical purity ([1]; room temperature, 1 h) [%] | Radiochemical purity ([1]; room temperature, 2 h) [%] | Radiochemical purity ([1]; room temperature, 3 h) [%] | Radiochemical purity ([1]; room temperature, 4 h) [%] | lipid-water distribution coefficient lgP [2] | plasma protein binding rate (PPB) [3] [%] | therapeutic efficacy versus control group ([4]; different doses (100 μCi, 500 μCi) versus normal saline) | bone pain relief [4, 5] | survival rate within 5 weeks of administration [4, 5] |
| --- | --- | --- | --- | --- | --- | --- | --- | --- | --- | --- | --- | --- | --- | --- | --- | --- | --- |
| CN(CCCCNC(=O)CN1CCN(CC(=O)O)CCN(CC(=O)O)CCN(CC(=O)O)CC1)CCC(O)(P(=O)(O)O)P(=O)(O)O.[68Ga] [^68Ga-DOTA-ibandronic acid] | 99 | 96 | 96 | 92 | 90 | 87 | 98 | 97 | 95 | 95 | 95 | 93 | −2.33 | 81 | – | – | – |
| CN(CCCCNC(=O)CN1CCN(CC(=O)O)CCN(CC(=O)O)CCN(CC(=O)O)CC1)CCC(O)(P(=O)(O)O)P(=O)(O)O.[177Lu] [^177Lu-DOTA-ibandronic acid] | – | – | – | – | – | – | – | – | – | – | – | – | – | – | higher than that of the corresponding control group | relieved to the greatest extent | relatively highest |

From US20240415989A1, “RADIOLABELED COMPOUND, AND PRECURSOR COMPOUND THEREOF, PREPARATION METHOD THEREFOR, AND APPLICATION THEREOF” (priority 2021, published 2024)
